These results are taken from patent US11485758B2, “Bi-terminal pegylated integrin-binding peptides and methods of use thereof” (The Regents of the University of California, priority 2014, dated 2022).

Assay [1] deals with BxPC-3 tumors (endogenous αvβ6-expression). To be noted: 1 h; blocking with 30 mg/kg FBA-PEG28-A20FMDV2 at T=−10 min. As to the method:
(PBS) or 37° C. (serum), followed by analysis on radio HPLC. Data are expressed as % probe remaining intact in sample. […] Tumor models—DX3puroβ6/DX3puro: Human melanoma cell line. DX3puroβ6 has been stably transfected to express integrin αvβ6. DX3puro is negative control cell line. […] BxPC-3: Pancreatic cell line with endogenous αvβ6-expression. MIA PaCa-2: Pancreatic cell line, no αvβ6-expression.

Assay [2] relates to BxPC-3 cells (endogenous αvβ6(+)-expression). The conditions noted are these: 60 min incubation.
The test system of assay [3] is integrin αvβ6-expressing DX3puroβ6 cell line. Description: Cell binding and internalization of radiotracers, DX3puroβ6 cells. Format: cell-based, human. The conditions noted are these: for Affinity and selectivity for the αvβ6(+)-expressing cell line DX3puroβ6, in words: cell binding vs DX3puro control.
In assay [4] the test system is αvβ6-negative DX3puro control cell line. Description: Cell binding and internalization of radiotracers, DX3puro control cells. Format: cell-based, human.
For a further assay, the target named is T1, αvβ6 integrin (Homo sapiens, UniProt P06756+P18564).
T1 construct: purchased R&D systems (Minneapolis, Minn.)
T1 sequence (P06756 31-889 limits assumed): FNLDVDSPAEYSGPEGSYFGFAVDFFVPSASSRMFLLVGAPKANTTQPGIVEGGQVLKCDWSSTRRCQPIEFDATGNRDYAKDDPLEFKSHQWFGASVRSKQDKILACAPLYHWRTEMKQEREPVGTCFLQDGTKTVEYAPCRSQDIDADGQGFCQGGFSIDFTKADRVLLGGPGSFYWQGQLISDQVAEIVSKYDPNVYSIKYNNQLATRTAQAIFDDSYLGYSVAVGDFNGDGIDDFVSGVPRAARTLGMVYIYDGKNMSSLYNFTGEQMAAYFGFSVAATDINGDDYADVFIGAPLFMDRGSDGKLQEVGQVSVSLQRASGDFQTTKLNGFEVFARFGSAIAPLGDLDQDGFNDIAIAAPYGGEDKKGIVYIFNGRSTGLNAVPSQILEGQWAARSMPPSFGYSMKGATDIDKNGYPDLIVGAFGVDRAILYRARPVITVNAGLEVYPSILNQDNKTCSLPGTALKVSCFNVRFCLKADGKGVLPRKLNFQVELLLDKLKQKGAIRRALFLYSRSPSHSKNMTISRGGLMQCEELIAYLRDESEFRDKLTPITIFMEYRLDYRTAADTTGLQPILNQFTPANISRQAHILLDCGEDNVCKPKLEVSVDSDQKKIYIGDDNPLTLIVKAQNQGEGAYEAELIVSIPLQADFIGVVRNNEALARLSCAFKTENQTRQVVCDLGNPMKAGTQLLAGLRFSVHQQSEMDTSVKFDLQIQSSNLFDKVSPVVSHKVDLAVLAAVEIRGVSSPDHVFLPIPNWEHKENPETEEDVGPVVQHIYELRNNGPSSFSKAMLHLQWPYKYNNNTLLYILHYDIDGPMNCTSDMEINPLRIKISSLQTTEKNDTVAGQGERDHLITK
T1 sequence (P06756 891-992 limits assumed): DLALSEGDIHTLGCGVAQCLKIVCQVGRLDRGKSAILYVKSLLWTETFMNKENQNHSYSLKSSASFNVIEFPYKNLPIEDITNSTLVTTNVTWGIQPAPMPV
T1 sequence (P18564 22-707 limits assumed): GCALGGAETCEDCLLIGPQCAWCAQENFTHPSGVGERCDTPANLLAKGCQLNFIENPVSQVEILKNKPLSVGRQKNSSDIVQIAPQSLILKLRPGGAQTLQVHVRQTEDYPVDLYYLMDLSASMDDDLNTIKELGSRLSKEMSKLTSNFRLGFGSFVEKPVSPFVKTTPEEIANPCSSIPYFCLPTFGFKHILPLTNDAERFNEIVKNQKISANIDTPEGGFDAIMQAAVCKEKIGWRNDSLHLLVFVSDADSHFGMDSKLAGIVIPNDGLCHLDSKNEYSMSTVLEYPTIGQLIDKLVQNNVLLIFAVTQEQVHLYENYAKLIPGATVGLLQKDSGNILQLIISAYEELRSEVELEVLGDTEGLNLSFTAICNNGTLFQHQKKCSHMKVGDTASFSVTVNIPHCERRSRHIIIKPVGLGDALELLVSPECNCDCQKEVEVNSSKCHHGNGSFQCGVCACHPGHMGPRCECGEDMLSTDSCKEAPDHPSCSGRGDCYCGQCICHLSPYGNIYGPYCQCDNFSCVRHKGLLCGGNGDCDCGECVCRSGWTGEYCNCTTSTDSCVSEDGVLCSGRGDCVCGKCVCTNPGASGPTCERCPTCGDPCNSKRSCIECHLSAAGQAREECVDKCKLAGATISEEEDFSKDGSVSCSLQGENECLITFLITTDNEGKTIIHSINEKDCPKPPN
Put plainly: Competitive binding ELISA of [19F]FBA peptides for integrin αvβ6. The protocol: Affinity of each peptide was assessed ELISA on Nunc Maxisorp Flat-bottom 96 well plates (affymetrix ebioscience, San Diego, Calif.). Integrin alpha V antibody P2W7 was purchased from Novus Biologicals (Littleton, Colo.). Bovine serum albumin (BSA) was purchased from VWR (Randor, Pa.) and TMB one solution was purchased from Promega (Madison, Wis.). αvβ6 integrin was purchased from R&D systems (Minneapolis, Minn.). Protein biotinylation kit was purchased from Amersham plc (Amersham, UK) while competing natural ligand fibronectin was purchased from Invitrogen (Carlsbad, Calif.). Affinity was measured in absorbance units by the Thermo Multiscan Plate reader with associated Ascent Software (Thermofisher, Waltham, Mass.).
The peptides were allowed to compete for 1 h with biotinylated fibronectin, a natural ligand for αvβ6; or biotinylated vitronectin, when competing against αvβ3. Briefly, a 96-well plate was coated with 50 μL/well of 5 μg/mL P2W7 in phosphate buffered saline (PBS) at 37° C. for 1 h. The plate was washed three times with PBS followed by treatment with PBS containing 5% bovine serum albumin (BSA; fraction V; w/v) and 1% Tween 20 (v/v) at 4° C. for 16 h to block nonspecific binding. The plate was washed with PBS and coated with 50 μL/well integrin in wash buffer (WaB) for 1 h and then washed three times with WaB. WaB consisted of a solution of 2 mmol/L Tris buffer (pH 7.6), 150 mmol/L sodium chloride, 1 mmol/L manganese chloride, and 0.1% Tween 20 (v/v) in deionized water. Triplicate wells were coated with 50 μL/well of a mixture of equal volumes of biotinylated fibronectin (BtFn) for αvβ6, or biotinylated vitronectin (BtVn) for αvβ3, in conjugate buffer, consisting of 1% BSA (fraction V; w/v) in WaB, and a serial dilution of peptide stock (2 mmol/L; 10% DMSO (v/v) in water) from 1 μM to 1 pM. Wells containing no peptide, no peptide and no antibody, or no peptide and no ligand served as controls. The plate was incubated for 1 h at room temperature and washed three times with WaB before ExtrAvidin-horseradish peroxidase conjugate was added (50 μL/well, 1:1,000 dilution in conjugate buffer) at room temperature for 1 h. After washing with WaB, bound BtFn or BtVn was detected by addition of TMB (50 μL/well) and incubation for 10 to 15 min. The reaction was terminated by adding 50 μL/well […] sulfuric acid and absorbance was measured at 450 nm (yellow color of acidified oxidized TMB, indicating fibronectin binding). Calculations of IC50 values are based on data analysis with Prism software (GraphPad Software).
In general terms: An ELISA detects its analyte on a solid surface through an enzyme-linked reagent.

Like-named read-outs stand apart in the source and are kept apart here. Where a SMILES comes first, the peptide text is derived from it. Where no end group is shown, it is not given here. The star is where a group is joined. Benzoyl(4-F) = O=C(c1ccc(F)cc1)*

Consider “18F-FBA-PEG28-A20FMDV2-PEG28 [compound 5]”, for which the “Reduction of BxPC-3 tumor uptake vs unblocked” value in assay [1] was 92%. For the same molecule, in assay [2], the “Binding to BxPC-3 cells (fraction of total radioactivity)” value came out at 37.2±1.9% and the “Internalization into BxPC-3 cells (of total radioactivity)” value is 28.4±0.9%. In addition, in assay [3] (60 min incubation), the “Binding to DX3puroβ6 cells (fraction of total radioactivity)” value stood at 51.0±0.9% and the “Internalization into DX3puroβ6 cells (of total radioactivity)” value was found to be 33.5±1.8%. Also, in assay [4] (60 min incubation), the “Binding to DX3puro control cells” value was found to be 3.5±0.2% and the “Internalization into DX3puro control cells” value was determined as 0.9±0.1%.

Take `CC(C)C[C@H](NC(=O)[C@H](CC(=O)O)NC(=O)[C@H](CO)NC(=O)[C@@H](N)CCCNC(=N)N)C(=O)N[C@H](C(=O)N1CCC[C@H]1C(=O)N[C@@H](CC(C)C)C(=O)N[C@@H](Cc1ccccc1)C(N)=O)[C@@H](C)O` (H-RSDLTPLF-NH2): at αvβ6 integrin, the IC50 – broadly, the point on the concentration scale where inhibition reaches its midpoint – turned out to be 7 nM and the “Selectivity for αvβ6 over αvβ3” value stood at 100 times.

Turning to `CC(C)C[C@H](NC(=O)[C@H](CC(=O)O)NC(=O)[C@H](CO)NC(=O)[C@H](CCCNC(=N)N)NC(=O)c1ccc(F)cc1)C(=O)N[C@H](C(=O)N1CCC[C@H]1C(=O)N[C@@H](CC(C)C)C(=O)N[C@@H](Cc1ccccc1)C(N)=O)[C@@H](C)O` ({Benzoyl(4-F)}-RSDLTPLF-NH2), the IC50 on αvβ6 integrin was found to be 7 nM.

Consider `CC(C)C[C@H](NC(=O)[C@H](CC(=O)O)NC(=O)CNC(=O)[C@H](CCCNC(=N)N)NC(=O)[C@H](CC(C)C)NC(=O)[C@H](CC(N)=O)NC(=O)[C@@H]1CCCN1C(=O)[C@@H](NC(=O)[C@H](C)NC(=O)[C@H](CC(N)=O)NC(=O)CCOCCOCCOCCOCCOCCOCCOCCOCCOCCOCCOCCOCCOCCOCCOCCOCCOCCOCCOCCOCCOCCOCCOCCOCCOCCOCCOCCOCCNC(=O)c1ccc(F)cc1)C(C)C)C(=O)N[C@@H](CCC(N)=O)C(=O)N[C@H](C(=O)N[C@@H](CC(C)C)C(=O)N[C@@H](C)C(=O)N[C@@H](CCC(N)=O)C(=O)N[C@@H](CCCCN)C(=O)N[C@H](C(=O)N[C@@H](C)C(=O)N[C@@H](CCCNC(=N)N)C(=O)N[C@H](C(=O)NCCOCCOCCOCCOCCOCCOCCOCCOCCOCCOCCOCCOCCOCCOCCOCCOCCOCCOCCOCCOCCOCCOCCOCCOCCOCCOCCOCCOCCC(N)=O)[C@@H](C)O)C(C)C)C(C)C` [PEGylated A20FMDV2 not bearing K(IPA)E], for which the “Binding to DX3puroβ6 cells (fraction of total radioactivity)” value in assay [3] (60 min incubation) turned out to be 52%. In addition, the “Internalized share of bound radioactivity, DX3puroβ6 cells” value in assay [3] (of bound radioactivity) stood at 44%. Also, in assay [4], the “Binding and internalization in DX3puro control, in words” value was “low”.

On to D(KLAKLAK)2-GG-PEG28-A20FMDV2-K, for which the “Affinity and selectivity for the αvβ6(+)-expressing cell line DX3puroβ6, in words” value in assay [3] is “does not affect its affinity, specificity, and internalization-potential”.

As for PEG28-A20FMDV2(K16R)-PEG28, in assay [3] (1 h, basis not given), the “Internalization in αvβ6 cells” value is above 50%. Besides, in assay [3] (60 min incubation), the “Binding to DX3puroβ6 cells (fraction of total radioactivity)” value is reported as above 70%.

Consider PEG28-A20FMDV2-GG-D(KLAKLAK)2-K, for which, in assay [3], the “Affinity and selectivity for the αvβ6(+)-expressing cell line DX3puroβ6, in words” value was “does not affect its affinity, specificity, and internalization-potential”.

As for “c(RSDLTPLFE)K([^19F]FBA)-NH2 (RSDLTPLFEK((19F)FBA)-NH2; bridge (positions not given here); also: residues 1-9 cyclized, mode not given here)”, in the assay with αvβ6 integrin (ELISA, calculated by PRISM, read-out: IC50 against αvβ6), the IC50 is above 300 nM.
